We go through 1 molecule from publication PMC7070908, “Structure-Guided Identification of Black Cohosh (Actaea racemosa) Triterpenoids with In Vitro Activity against Multiple Myeloma” (Molecules, 2020).

One series has as its system OPM-2 myeloma cell line. Nature of the series: Cytotoxicity, flow cytometry (AnnexinV/propidium iodide negativity), OPM-2. It is filed as cell-based, human. The note with it: for MM Cells % Alive OPM-2: 24 h, second round (Table 3). The protocol: (§1) Induction of apoptosis was measured in myeloma cell lines NCI-H929, OPM-2, and U266 as well as in peripheral blood mononuclear cells (PBMCs) of healthy donors by flow cytometry using established protocols thereby staining the cells with AnnexinV-fluorescein isothiocyanate and propidium iodide. Bortezomib (Eubio, Vienna, Austria) was used as positive control. Cell lines were purchased from DSMZ (Braunschweig, Germany) and routinely fingerprinted and tested for mycoplasma negativity. All cells (cell lines and PBMC) were grown in RPMI-1640 medium (Life Technologies, Paisley, UK) supplemented with 10% fetal calf serum (FCS; PAA, Linz, Austria), L-glutamine 100 µg/mL, and penicillin-streptomycin 100 U/mL. PBMCs from healthy donors were used after obtaining written informed consent at the University Hospital Salzburg (ethics committee approval 415-E/1287/6-2011). Cells were subjected to Ficoll separation (Ficoll PaqueTM) and incubated in RPMI-1640 Media with supplements as above. In brief, 0.5 × 10^6 myeloma cells/mL or similar numbers of PMBCs were incubated for 24 h and 48 h with or without the tested compounds dissolved in dimethyl sulfoxide at different concentrations. At least three analyses in triplicates were performed for each cell line and a solvent control was always included. As a positive control, the proteasome inhibitor bortezomib (BTZ) was used at concentrations of 10 and 5 nM. The extent of non-apoptotic cells (AnnexinV/propidium iodide negativity) was calculated as percentage of viable cells in respect to the untreated control. Data are shown as mean percentage of viable cells and standard error of the mean (SEM) (error bars).

The test system of series [1] is normal human gingival fibroblasts (HGF). Also on record: method as in PMID 11824572. The following applies: cited from earlier work.
The subject of the next series is U266 myeloma cell line. The experiment in a line: Cytotoxicity, flow cytometry (AnnexinV/propidium iodide negativity), U266. In kind it is cell-based, human. The note with it: for MM Cells % Alive U266: 24 h, second round (Table 3). The protocol: as §1
Series [2] concerns human squamous cell carcinoma (HSC-2) cells. Details: method as in PMID 11824572. The following applies: cited from earlier work.
The subject of series [3] is peripheral blood mononuclear cells (PBMCs) of healthy donors. The experiment in a line: Cytotoxicity, flow cytometry (AnnexinV/propidium iodide negativity), PBMC of healthy donors. The following applies: 24 h; for PBMC % Alive: second round (Table 3). It is filed as cell-based, human. As for the experimental part:
as §1

The subject of series [4] is NCI-H929 myeloma cell line. Nature of the series: Cytotoxicity, flow cytometry (AnnexinV/propidium iodide negativity), NCI-H929. The following applies: for MM Cells % Alive NCI-H929: 24 h, second round (Table 3). It is filed as cell-based, human. As for the experimental part: as §1

In brackets after ≈: the same amount, converted by molar mass.

`COC(C)(C)C1OC23OC1CC(C)C2C1(C)CCC24CC25CCC(OC2OCC(O)C(O)C2O)C(C)(C)C5CCC4C1(C)C3O` [Compound 7, 25-O-methylcimigenol-3-O-α-L-arabinopyranoside]: the “MM Cells % Alive OPM-2” value with OPM-2 myeloma cell line (12.5 µM) was found to be 99.8 ± 1.7%; with OPM-2 myeloma cell line (25 µM), 88.0 ± 4.5%; in the series on OPM-2 myeloma cell line (37.5 µM), 31.3 ± 8.6%. For the same molecule, the IC50 with OPM-2 myeloma cell line (Homo sapiens, OPM-2, 24 h, incubation for 24 h) was determined as 21.2 µg/mL (≈ 33.4 µM); with U266 myeloma cell line (Homo sapiens, U-266, 24 h, incubation for 24 h), 16.2 µg/mL (≈ 25.5 µM); in series [3] (Homo sapiens, PBMC, incubation for 24 h) it was 19.9 µg/mL (≈ 31.3 µM); in series [4] (Homo sapiens, NCI-H929, 24 h, incubation for 24 h), 14.7 µg/mL (≈ 23.2 µM). Besides, the “cytotoxic effects against HGF (in words)” value in series [1] was “moderate effects”. The “MM Cells % Alive U266” value in the series on U266 myeloma cell line (12.5 µM) turned out to be 97.0 ± 3.5%; with U266 myeloma cell line (25 µM) it was 51.3 ± 11.8%; with U266 myeloma cell line (37.5 µM), 5.3 ± 2.8%. Also, in the series on U266 myeloma cell line (incubation for 24 h), the “IC50 U266” value came out at 16.1 µg/mL (≈ 25.4 µM). In addition, the “cytotoxic effects against HSC-2 cells (in words)” value in series [2] was “moderate effects”. Further, the figures for the “PBMC % Alive” value in series [3] (12.5 µM), in series [3] (25 µM) and in series [3] (37.5 µM) were 105.3 ± 0.6%, 81.0 ± 8.5% and 25.0 ± 6.3%, respectively. In addition, the figures for the “MM Cells % Alive NCI-H929” value in series [4] (12.5 µM), in series [4] (25 µM) and in series [4] (37.5 µM) were 95.5 ± 1.8%, 34.3 ± 8.0% and 2.5 ± 1.3%, respectively.
